Consider one molecule from US6432972B1, “Treating allergic and inflammatory conditions” (Schering Corporation, priority 2000, dated 2002).

The test system of one data set is patients with SAR. Kind of data set: pooled randomized, parallel-group, double-blind, placebo-controlled studies; nasal congestion/stuffiness severity score in patients with SAR. It counts as in vivo, human. The settings on record: for nasal congestion/stuffiness, 14-day average change in symptom severity score from baseline: baseline score 2.4. The procedure: The severity (0=none, 1=mild, 2=moderate, 3=severe) of congestion/stuffiness was assessed by patients for the study duration. The 14-day average change in symptom severity score from baseline was assessed. The mean symptom severity score for nasal congestion/stuffiness was 2.4 in each treatment group at baseline, indicating patients had moderate-to-severe nasal congestion before receiving treatment.

Data set [1] in a line: stability of free base versus acid addition salt. It counts as physicochemical. The text has this: Such pharmaceutical compositions may be formulated by combining desloratadine or an equivalent amount of a pharmaceutically acceptable salt thereof with a suitable, inert, pharmaceutically acceptable carrier or diluent that may be either solid or liquid. Desloratadine may be converted into the pharmaceutically acceptable acid addition salts by admixing it with an equivalent amount of a pharmaceutically acceptable acid. Typically suitable pharmaceutically acceptable acids include the mineral acids, e.g., HNO3, H2SO4, H3PO4, HCl, HBr, organic acids, including, but not limited to, acetic, trifluoroacetic, propionic, lactic, maleic, succinic, tartaric, glucuronic and citric acids as well as alkyl or arylsulfonic acids, such as p-toluenesulfonic acid, 2-naphthalenesulfonic acid, or methanesulfonic acid. The preferred pharmaceutically acceptable salts are trifluoroacetate, tosylate, mesylate, and chloride.

For data set [2], the system named is seasonal allergic rhinitis patients. Kind of data set: double-blinded, randomized clinical trials in seasonal allergic rhinitis patients. The format is in vivo, human. The procedure:
Efficacy endpoints in all the studies were Total Symptom Score, Total Nasal Symptom Score, Total Non-nasal Symptom Score, and Health Quality of Life (HQOL) analysis in efficacy trials. […] An important efficacy endpoint analyzed in the desloratadine studies is the AM NOW total symptom score. This parameter measures the total symptom relief by the patient after 24 hours before taking the next day dose.

As to `Clc1ccc2c(c1)CCc1cccnc1C2=C1CCNCC1` [Desloratadine], the “nasal congestion/stuffiness, 14-day average change in symptom severity score from baseline” value in the data set with patients with SAR (5 mg PO once a day for 14 days, P=0.02 vs placebo) was “significantly decreased”; in the data set with patients with SAR (7.5 mg PO once a day for 14 days, P=0.01 vs placebo) it was “significantly decreased”. Also, the total symptom severity result in the data set with patients with SAR (5 mg or 7.5 mg PO once a day for 14 days, vs placebo) is given as “significantly decreased”. Also, the “stability, free base compared with acid addition salt” value in data set [1] was “more stable as the free base than as an acid addition salt”. Besides, in data set [2] (5 mg once daily, adult and adolescent seasonal allergic rhinitis patients), the “total symptom scores (sum of individual scores for rhinorrhea, sneezing, congestion/stuffiness, nasal itching, itchy/burning eyes, tearing, ocular redness, itchy ears/palate)” value is given as “significantly reduced”. For the same molecule, the “AM NOW total symptom score (symptom relief after 24 hours, before next day dose)” value in data set [2] (5 mg to 20 mg dosage range, p<0.05) is given as “Statistically significant (p<0.05) reductions were maintained for the full 24 hour dosing interval”. In addition, in data set [2] (5 mg, p<0.01 vs placebo), the “reducing nasal symptoms vs placebo” value is “significantly (p<0.01) more effective than placebo”.
